Laboratory results taken from patent US20250002507A1, “7,8-DIHYDRO-5H-1,6-NAPHTHYRIDINE DERIVATIVES AS POSITIVE ALLOSTERIC MODULATORS OF THE MUSCARINIC ACETYLCHOLINE RECEPTOR M4 FOR TREATING NEUROLOGICAL AND PSYCHIATRIC DISORDERS” (Vanderbilt University, priority 2021, published 2025).

Molecular target: T1, Human M4 (Homo sapiens, UniProt P08173)
T1 construct: expressed in transfected cells
T1 sequence (P08173 1-479): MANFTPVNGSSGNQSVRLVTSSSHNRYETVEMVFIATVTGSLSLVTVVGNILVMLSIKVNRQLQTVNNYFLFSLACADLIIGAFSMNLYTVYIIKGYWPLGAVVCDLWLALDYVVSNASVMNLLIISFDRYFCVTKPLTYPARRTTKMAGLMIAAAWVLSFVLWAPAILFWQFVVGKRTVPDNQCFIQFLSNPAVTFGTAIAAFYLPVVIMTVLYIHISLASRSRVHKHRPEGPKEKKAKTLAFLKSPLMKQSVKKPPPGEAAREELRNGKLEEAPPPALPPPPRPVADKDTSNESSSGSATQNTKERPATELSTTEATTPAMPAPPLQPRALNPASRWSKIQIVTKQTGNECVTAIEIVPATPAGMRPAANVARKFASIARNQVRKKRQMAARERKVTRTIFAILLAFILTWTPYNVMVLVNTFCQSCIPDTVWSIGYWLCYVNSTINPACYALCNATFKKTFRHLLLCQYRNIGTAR
Test: mAChR M4 cell-based functional assay (calcium flux, potentiation of EC20 acetylcholine response), hM4-Gqi5 CHO-K1 cells
Settings: Table 3; for Emax at 30 µM: CHO-K1, Human M4, % ACh maximum at 30 μM, read-out: Emax (% ACh maximum at 30 μM); for EC50: potentiation of EC20 acetylcholine response, calcium flux, CHO-K1 cells, read-out: Human M4 EC50
In short: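 CHO-K1 cells stably expressing human M4 with chimeric Gqi5, loaded with Fluo-4 AM 50 min at 37 °C; calcium flux read by FDSS. 11-point 1:3 compound curves added, then EC20 acetylcholine at 144 s; potentiation of the EC20 response fitted by four-parameter logistic to give EC50 and Emax.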

| Compound | Emax at 30 µM [%] | EC50 [nM] |
| --- | --- | --- |
| Cc1c(N2CCc3ncc(N4CCC5(CC4)COC5)cc3C2)nn2c(C(F)(F)F)nnc2c1C [Compound 274, 7-(6-(7,8-dimethyl-3-(trifluoromethyl)-[1,2,4]triazolo[4,3-b]pyridazin-6-yl)-5,6,7,8-tetrahydro-1,6-naphthyridin-3-yl)-2-oxa-7-azaspiro[3.5]nonane] | 65 | 3280 |
| Cc1c(N2CCc3ncc(N4CCCC4)cc3C2)nn2c(C(F)(F)F)nnc2c1C [Compound 275, 6-(7,8-dimethyl-3-(trifluoromethyl)-[1,2,4]triazolo[4,3-b]pyridazin-6-yl)-3-(pyrrolidin-1-yl)-5,6,7,8-tetrahydro-1,6-naphthyridine] | 74 | 933 |
| Cc1c(N2CCc3ncc(N4CCN(C)CC4)cc3C2)nn2c(C(F)(F)F)nnc2c1C [Compound 276, 6-(7,8-dimethyl-3-(trifluoromethyl)-[1,2,4]triazolo[4,3-b]pyridazin-6-yl)-3-(4-methylpiperazin-1-yl)-5,6,7,8-tetrahydro-1,6-naphthyridine] | 65 | 1970 |
| Cc1c(N2CCc3ncc(Oc4cccc(F)c4)cc3C2)nn2c(C(F)(F)F)nnc2c1C [Compound 278, 6-(7,8-dimethyl-3-(trifluoromethyl)-[1,2,4]triazolo[4,3-b]pyridazin-6-yl)-3-(3-fluorophenoxy)-5,6,7,8-tetrahydro-1,6-naphthyridine] | 84 | 832 |
| Cc1c(N2CCc3ncc(NC4CCOC4)cc3C2)nn2c(C(F)(F)F)nnc2c1C (centres unmarked) [Compound 279, 6-(7,8-dimethyl-3-(trifluoromethyl)-[1,2,4]triazolo[4,3-b]pyridazin-6-yl)-N-(tetrahydrofuran-3-yl)-5,6,7,8-tetrahydro-1,6-naphthyridin-3-amine] | 86 | 1010 |
| Cc1c(N2CCc3nnc(Cl)cc3C2)nn2c(C(F)(F)F)nnc2c1C [Compound 283, 3-chloro-6-(7,8-dimethyl-3-(trifluoromethyl)-[1,2,4]triazolo[4,3-b]pyridazin-6-yl)-5,6,7,8-tetrahydropyrido[4,3-c]pyridazine] | 89 | 2170 |
| Cc1c(N2CCc3ncc(C(F)c4ccccc4)cc3C2)nn2c(C(F)(F)F)nnc2c1C (centres unmarked) [Compound 285, 6-(7,8-dimethyl-3-(trifluoromethyl)-[1,2,4]triazolo[4,3-b]pyridazin-6-yl)-3-(fluoro(phenyl)methyl)-5,6,7,8-tetrahydro-1,6-naphthyridine] | 88 | 1060 |
| COC1CCN(c2cnc3c(c2)CN(c2nn4c(C(F)(F)F)nnc4cc2C)CC3)C1 (centres unmarked) [Compound 287, 3-(3-methoxypyrrolidin-1-yl)-6-(7-methyl-3-(trifluoromethyl)-[1,2,4]triazolo[4,3-b]pyridazin-6-yl)-5,6,7,8-tetrahydro-1,6-naphthyridine] | 82 | 2360 |
| COC1CCN(c2cnc3c(c2)CN(c2nn4c(C(F)(F)F)nnc4c(C)c2C)CC3)C1 (centres unmarked) [Compound 288, 6-(7,8-dimethyl-3-(trifluoromethyl)-[1,2,4]triazolo[4,3-b]pyridazin-6-yl)-3-(3-methoxypyrrolidin-1-yl)-5,6,7,8-tetrahydro-1,6-naphthyridine] | 77 | 940 |
| Cc1ccc(Oc2cnc3c(c2)CN(c2nn4c(C(F)(F)F)nnc4cc2C)CC3)c(F)c1 [Compound 290, 3-(2-fluoro-4-methylphenoxy)-6-(7-methyl-3-(trifluoromethyl)-[1,2,4]triazolo[4,3-b]pyridazin-6-yl)-5,6,7,8-tetrahydro-1,6-naphthyridine] | 69 | 1680 |
| Cc1ccc(Oc2cnc3c(c2)CN(c2nn4c(C(F)(F)F)nnc4c(C)c2C)CC3)c(F)c1 [Compound 291, 6-(7,8-dimethyl-3-(trifluoromethyl)-[1,2,4]triazolo[4,3-b]pyridazin-6-yl)-3-(2-fluoro-4-methylphenoxy)-5,6,7,8-tetrahydro-1,6-naphthyridine] | 67 | 1880 |
| Cc1cc2nnc(C(F)(F)F)n2nc1N1CCc2ncc(Oc3ccc(F)cc3F)cc2C1 [Compound 296, 3-(2,4-difluorophenoxy)-6-(7-methyl-3-(trifluoromethyl)-[1,2,4]triazolo[4,3-b]pyridazin-6-yl)-5,6,7,8-tetrahydro-1,6-naphthyridine] | 96 | 1120 |
| Cc1cc2nnc(C(F)(F)F)n2nc1N1CCc2ncc(Oc3cccc(F)c3F)cc2C1 [Compound 297, 3-(2,3-difluorophenoxy)-6-(7-methyl-3-(trifluoromethyl)-[1,2,4]triazolo[4,3-b]pyridazin-6-yl)-5,6,7,8-tetrahydro-1,6-naphthyridine] | 100 | 1100 |

Further compounds by falling EC50, results first:

| Emax at 30 µM [%] | EC50 [nM] | Compound |
| --- | --- | --- |
| 83 | 816 | Cc1c(N2CCc3ncc(N4CCC5OCCCC5C4)cc3C2)nn2c(C(F)(F)F)nnc2c1C (centres unmarked) [Compound 273, 6-(6-(7,8-dimethyl-3-(trifluoromethyl)-[1,2,4]triazolo[4,3-b]pyridazin-6-yl)-5,6,7,8-tetrahydro-1,6-naphthyridin-3-yl)octahydro-2H-pyrano[3,2-c]pyridine] |
| 76 | 738 | Cc1c(N2CCc3ncc(N4CCCCC4)cc3C2)nn2c(C(F)(F)F)nnc2c1C [Compound 281, 6-(7,8-dimethyl-3-(trifluoromethyl)-[1,2,4]triazolo[4,3-b]pyridazin-6-yl)-3-(piperidin-1-yl)-5,6,7,8-tetrahydro-1,6-naphthyridine] |
| 85 | 698 | Cc1c(N2CCc3ncc(N4CCC(F)(F)CC4)cc3C2)nn2c(C(F)(F)F)nnc2c1C [Compound 280, 3-(4,4-difluoropiperidin-1-yl)-6-(7,8-dimethyl-3-(trifluoromethyl)-[1,2,4]triazolo[4,3-b]pyridazin-6-yl)-5,6,7,8-tetrahydro-1,6-naphthyridine] |
| 106 | 556 | COC1CCCN(c2cnc3c(c2)CN(c2nn4c(C(F)(F)F)nnc4c(C)c2C)CC3)C1 (centres unmarked) [Compound 292, 6-(7,8-dimethyl-3-(trifluoromethyl)-[1,2,4]triazolo[4,3-b]pyridazin-6-yl)-3-(3-methoxypiperidin-1-yl)-5,6,7,8-tetrahydro-1,6-naphthyridine] |
| 53 | 545 | Cc1c(N2CCc3ncc(N4CCCn5nccc54)cc3C2)nn2c(Cl)nnc2c1C [Compound 284, 6-(3-chloro-7,8-dimethyl-[1,2,4]triazolo[4,3-b]pyridazin-6-yl)-3-(6,7-dihydropyrazolo[1,5-a]pyrimidin-4(5H)-yl)-5,6,7,8-tetrahydro-1,6-naphthyridine] |
| 85 | 392 | Cc1c(N2CCc3ncc(Oc4ccccc4F)cc3C2)nn2c(C(F)(F)F)nnc2c1C [Compound 277, 6-(7,8-dimethyl-3-(trifluoromethyl)-[1,2,4]triazolo[4,3-b]pyridazin-6-yl)-3-(2-fluorophenoxy)-5,6,7,8-tetrahydro-1,6-naphthyridine] |
| 102 | 265 | Cc1ccc(Oc2cnc3c(c2)CN(c2nn4cnnc4c(C)c2C)CC3)c(F)c1 [Compound 289, 6-(7,8-dimethyl-[1,2,4]triazolo[4,3-b]pyridazin-6-yl)-3-(2-fluoro-4-methylphenoxy)-5,6,7,8-tetrahydro-1,6-naphthyridine] |
| 96 | 155 | Cc1cc2nncn2nc1N1CCc2ncc(Oc3ccc(F)cc3F)cc2C1 [Compound 293, 3-(2,4-difluorophenoxy)-6-(7-methyl-[1,2,4]triazolo[4,3-b]pyridazin-6-yl)-5,6,7,8-tetrahydro-1,6-naphthyridine] |
| 94 | 102 | Cc1c(N2CCc3ncc(N4CCOC(C)(C)C4)cc3C2)nn2c(C(F)(F)F)nnc2c1C [Compound 286, 4-(6-(7,8-dimethyl-3-(trifluoromethyl)-[1,2,4]triazolo[4,3-b]pyridazin-6-yl)-5,6,7,8-tetrahydro-1,6-naphthyridin-3-yl)-2,2-dimethylmorpholine] |
| 103 | 101 | Cc1cc2nncn2nc1N1CCc2ncc(Oc3cccc(F)c3F)cc2C1 [Compound 294, 3-(2,3-difluorophenoxy)-6-(7-methyl-[1,2,4]triazolo[4,3-b]pyridazin-6-yl)-5,6,7,8-tetrahydro-1,6-naphthyridine] |
| 87 | 64 | Cc1c(N2CCc3ncc(N4CCOc5ncccc54)cc3C2)nn2c(C(F)(F)F)nnc2c1C [Compound 282, 1-(6-(7,8-dimethyl-3-(trifluoromethyl)-[1,2,4]triazolo[4,3-b]pyridazin-6-yl)-5,6,7,8-tetrahydro-1,6-naphthyridin-3-yl)-2,3-dihydro-1H-pyrido[2,3-b][1,4]oxazine] |
| 109 | 41 | Cc1cc2nncn2nc1N1CCc2ncc(Oc3cc(F)ccc3F)cc2C1 [Compound 295, 3-(2,5-difluorophenoxy)-6-(7-methyl-[1,2,4]triazolo[4,3-b]pyridazin-6-yl)-5,6,7,8-tetrahydro-1,6-naphthyridine] |
